Reference: paper PMC12094946, “Evidence of focusing the MHC class I immunopeptidome by tapasin” (Frontiers in Immunology, 2025)

What follows are substances tested against HLA-B*44:02 (Homo sapiens, UniProt P01889, A223V/A65T/A93T/A95T/D201E/D98Y/E176V/E187L/E204Q/E69K/G107R/H137Y/K202T/L105A/L119I/N104T/N87E/Q56L/Q94N/R106L/R155S/R180D/S101N/S121R/S35A/S48T/T118I/V36M/W191S/Y140D/Y91S) (assay: Immunopeptidome analysis (W6/32 isolation, LC-MS/MS) of 721.220 cells reconstituted with human tapasin). Details: sheet Overlaps; 1/0 flag; 5% peptide FDR.
Type: cell-based
Experimental: (§1) Approximately 5x10^8 cells were grown for each cell line, and cell pellets were snap frozen. Cell lysis and MHC-I peptide isolation were performed as previously described in detail ([30]). Briefly, cell pellets were lysed by cryomilling and incubation in a non-denaturing lysis buffer (0.5% Igepal CA-630, 50 mM Tris pH 8.0, 150 mM NaCl, 1 x Roche Complete protease inhibitor cocktail). MHC-I complexes were captured from the lysate using 7.5 mg of anti-MHC-I antibody, W6/32, immobilized on protein A Sepharose and subsequently dissociated with 10% acetic acid. The peptides were fractionated and separated from β2m and heavy chain components by reversed-phase high performance liquid chromatography (RP-HPLC). The peptide containing fractions were concentrated and chromatographically distant fractions were combined to generate nine pools, reconstituted in 15 µL 0.1% formic acid containing 500 fmol iRT reference peptides ([31]). Pools were analyzed by liquid chromatography-tandem mass spectrometry (LC-MS/MS) using a SCIEX 5600+ mass spectrometer, equipped with a NanoUltra cHiPLC system (Eksigent) and a Nanospray III ion source. Peptides were trapped on a cHiPLC trap column (3 µm, ChromXP C18CL, 120 Å, 0.5 mm x 200 µm), by loading at 5 µL/min in 0.1% formic acid, 2% acetonitrile, prior to elution over a cHiPLC column (3 µm, ChromXP C18CL, 120 Å, 15 cm x 75 µm) at 300 nL/min with increasing acetonitrile over 75 minutes. The mass spectrometer was operated as follows: ion spray voltage 2400 V, curtain gas 25 l/min, ion source gas 20 l/min, interface heater temperature 150°C, MS1 range 200-1800, MS1 accumulation time 200 ms, MS2 range 60-1800, and MS2 accumulation time 150 ms. The top 20 ions meeting the following criteria were selected for MS/MS fragmentation with rolling collision energy: >200 Da, charge state +2 to +5, >40 cps, dynamic exclusion 30 seconds after two occurrences. Mass spectra were interpreted by database search against the Uniprot/SwissProt ([32]) reviewed human proteome accessed October 2018 using PEAKS Studio XPRO (10.6 build, Bioinformatics Solutions Inc.) and a contaminant database contain the iRT reference peptide sequences using the following parameters: Instrument Triple TOF, fragmentation CID, parent mass error tolerance 25ppm, fragment mass error tolerance 0.1Da, enzyme none, digest mode unspecific, variable modifications Oxidation (M) +15.99 and Deamidation (NQ) +0.98, max variable modifications per peptide 3, False discovery rate (FDR) estimation enabled. A 5% peptide FDR was applied. Peptides identified from similar isolations of MHC class II from closely related 721.221 derived cell lines were excluded from downstream analyses.

Q: How did the “B4402 (peptide identified in immunopeptidome)” value turn out when “AEMDGAAAAKQVM [peptide identified within the immunopeptidomes]” was run?
A: 1

Q: “AEDALHNLDRKW [peptide identified within the immunopeptidomes]” was tested. Which “B4402 (peptide identified in immunopeptidome)” value did it give?
A: 1

Q: “EEVDLSKDIQHW [peptide identified within the immunopeptidomes]” was tested. Which “B4402 (peptide identified in immunopeptidome)” value did it give?
A: 1

Q: “SELALESQTKTY [peptide identified within the HLA-B*44:02 immunopeptidome]” was tested. Which “B4402 (peptide identified in immunopeptidome)” value did it give?
A: 1

Q: “AEIGEGAYGKVF [peptide identified within the immunopeptidomes]” was tested. Which “B4402 (peptide identified in immunopeptidome)” value did it give?
A: 1

The substances below were run against HLA-B*44:05 (Homo sapiens, UniProt P01889, A223V/A65T/A93T/A95T/D201E/D98Y/E176V/E187L/E204Q/E69K/G107R/H137Y/K202T/L105A/L119I/N104T/N87E/Q56L/Q94N/R106L/R155S/R180D/S101N/S121R/S35A/S48T/T118I/V36M/W191S/Y91S) in the same assay as above. Details: sheet Overlaps; 1/0 flag; 5% peptide FDR.
Type: cell-based
Experimental: as §1

Q: Which “B4405 (peptide identified in immunopeptidome)” value does the source give for “AEMDGAAAAKQVM [peptide identified within the immunopeptidomes]” here?
A: 1

Q: How did the “B4405 (peptide identified in immunopeptidome)” value turn out when “AEDALHNLDRKW [peptide identified within the immunopeptidomes]” was run?
A: 1

Q: “EEVDLSKDIQHW [peptide identified within the immunopeptidomes]” was tested. Which “B4405 (peptide identified in immunopeptidome)” value did it give?
A: 1

Q: For “SELALESQTKTY [peptide identified within the HLA-B*44:02 immunopeptidome]”, which “B4405 (peptide identified in immunopeptidome)” value is on record?
A: 0

Q: Which “B4405 (peptide identified in immunopeptidome)” value does the source give for “AEIGEGAYGKVF [peptide identified within the immunopeptidomes]” here?
A: 1

What follows are substances tested on HLA-B*44:05-W147A in the same assay as above. Details: sheet Overlaps; 1/0 flag; 5% peptide FDR.
Type: cell-based
Experimental: as §1

Q: Which “B4405 W147A (peptide identified in immunopeptidome)” value does the source give for “AEMDGAAAAKQVM [peptide identified within the immunopeptidomes]” here?
A: 0

Q: How did the “B4405 W147A (peptide identified in immunopeptidome)” value turn out when “AEDALHNLDRKW [peptide identified within the immunopeptidomes]” was run?
A: 0

Q: With “EEVDLSKDIQHW [peptide identified within the immunopeptidomes]” as the substance, how does the “B4405 W147A (peptide identified in immunopeptidome)” value read?
A: 0

Q: “SELALESQTKTY [peptide identified within the HLA-B*44:02 immunopeptidome]” was tested. Which “B4405 W147A (peptide identified in immunopeptidome)” value did it give?
A: 0

Q: How did the “B4405 W147A (peptide identified in immunopeptidome)” value turn out when “AEIGEGAYGKVF [peptide identified within the immunopeptidomes]” was run?
A: 0

These substances were tested against HLA-A*02:01-fos (Homo sapiens, UniProt P04439, D140Y/D185E/D98H/E176V/E277Q/G131W/G231S/I119V/I121R/I166T/I218V/L300P/L318F/N151K/N90K/P208A/P217A/Q86G/Q94H/R138H/R169H/T345S) (assay: In vitro peptide competition experiments (fluorescence polarization)). Details: index peptide IC50 compared with IC50 of unlabeled FLPSDCFPSV.
Experimental: Peptide competition experiments were prepared in PBS supplemented with 0.5 mg/ml bovine serum albumin (BSA) and a final concentration of 1.67% DMSO. The indicated concentrations of MHC-I molecules were supplemented with 20x excess β2-microglobulin and exposed to 366 nm light for 20 minutes at 4°C. Twenty µl of the UV exposed proteins were added to a 96 well microplate, with each well containing 40 µl of a titration (0 - 83.33 µM) of an unlabeled peptide competitor, 2–3 nM of the appropriate TAMRA labelled peptide, and 300 nM tapasin-jun-ERp57 (HLA-B*44 and HLA-B*35 experiments), or 300 nM TAPBPR (HLA-A*02:01 experiments) or neither tapasin-jun-ERp57 or TAPBPR. Samples were prepared in duplicate and incubated overnight at 25°C.
HLA-B*44:05 and HLA-B*44:05-W147A proteins were used at 160 nM with 2 nM EEFGK*AFSF peptide. HLA-B*35:01-fos and HLA-B*35:03-fos proteins were used at 225 nM with 3 nM YPLK*EQHGM peptide.
Fluorescence polarization measurements were taken using an I3x (Molecular Devices) with rhodamine detection cartridge.

Q: How did the “fold lower than unlabeled FLPSDCFPSV” value turn out when FLPSDC^TAMRAFPSV was run?
A: approximately 20 fold

Same assay, conditions: suggested by the divergent effects of TAPBPR on the ability of peptides to compete for binding to HLA-A*02:01

Q: How did the “IC50 value of the index peptide” value turn out when FLPSDC^TAMRAFPSV was run?
A: around 3 µM
